Measurements reported in the supplement of paper PMC10307832.

Legend:
Assay in all cases: relative viability (nuclei count vs DMSO), 5 days (fraction); higher = more cells survive
Dabrafenib + Linsitinib = compound: CC(C)(C)c1nc(-c2cccc(NS(=O)(=O)c3c(F)cccc3F)c2F)c(-c2ccnc(N)n2)s1 [Dabrafenib] + C[C@]1(O)C[C@@H](c2nc(-c3ccc4ccc(-c5ccccc5)nc4c3)c3c(N)nccn32)C1 [Linsitinib] (partner 1 µM)
In short: (§1)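 Relative viability equals treated-well nuclei counts divided by vehicle-well nuclei counts. Counts came from 4× images of lung cancer cell lines grown in 1536-well plates for 5 days after pin-tool dosing on the day after seeding. Dosing used one drug alone or a fixed anchor-drug dose plus five library-drug doses (not always all listed) in √10 steps, and values are medians of duplicate plates.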

Dabrafenib + Pemetrexed = compound: CC(C)(C)c1nc(-c2cccc(NS(=O)(=O)c3c(F)cccc3F)c2F)c(-c2ccnc(N)n2)s1 [Dabrafenib] + Nc1nc2[nH]cc(CCc3ccc(C(=O)N[C@@H](CCC(=O)O)C(=O)O)cc3)c2c(=O)[nH]1 [Pemetrexed] (partner 0.2 µM)
In short: as §1

Dabrafenib + Dasatinib = compound: CC(C)(C)c1nc(-c2cccc(NS(=O)(=O)c3c(F)cccc3F)c2F)c(-c2ccnc(N)n2)s1 [Dabrafenib] + Cc1nc(Nc2ncc(C(=O)Nc3c(C)cccc3Cl)s2)cc(N2CCN(CCO)CC2)n1 [Dasatinib] (partner 0.075 µM)
In short: as §1

VX-702 + Lapatinib = compound: NC(=O)c1ccc(N(C(N)=O)c2c(F)cccc2F)nc1-c1ccc(F)cc1F [VX-702] + CS(=O)(=O)CCNCc1ccc(-c2ccc3ncnc(Nc4ccc(OCc5cccc(F)c5)c(Cl)c4)c3c2)o1 [Lapatinib] (partner 2 µM)
In short: as §1

Cell Line	relative viability (Dabrafenib + Linsitinib; first compound 0.003 µM)	relative viability (Dabrafenib + Linsitinib; first compound 0.009487 µM)	relative viability (Dabrafenib + Linsitinib; first compound 0.03 µM)	relative viability (Dabrafenib + Linsitinib; first compound 0.09487 µM)	relative viability (Dabrafenib + Linsitinib; first compound 0.3 µM)	relative viability (Dabrafenib + Pemetrexed; first compound 0.003 µM)	relative viability (Dabrafenib + Pemetrexed; first compound 0.009487 µM)	relative viability (Dabrafenib + Pemetrexed; first compound 0.03 µM)	relative viability (Dabrafenib + Pemetrexed; first compound 0.09487 µM)	relative viability (Dabrafenib + Pemetrexed; first compound 0.3 µM)	relative viability (Dabrafenib + Dasatinib; first compound 0.003 µM)	relative viability (Dabrafenib + Dasatinib; first compound 0.009487 µM)	relative viability (Dabrafenib + Dasatinib; first compound 0.03 µM)	relative viability (Dabrafenib + Dasatinib; first compound 0.09487 µM)	relative viability (Dabrafenib + Dasatinib; first compound 0.3 µM)	relative viability (VX-702 + Lapatinib; first compound 0.02 µM)	relative viability (VX-702 + Lapatinib; first compound 0.2 µM)	relative viability (VX-702 + Lapatinib; first compound 0.6325 µM)	relative viability (VX-702 + Lapatinib; first compound 2 µM)
NCI-H460	0.84	0.952	0.68	0.757	0.826	0.0599	0.0868	0.0634	0.0648	0.0684	0.43	0.529	0.615	0.509	0.571	0.931	0.906	1.14	0.984
NCI-H520	1.01	0.93	0.741	0.853	1.05	0.697	0.6	0.625	0.669	0.652	0.223	0.24	0.199	0.179	0.177	0.809	1.05	0.798	1.05
NCI-H596	1	1.14	0.796	1.08	1.14		0.492	0.44	0.579	0.469		0.624	0.742	0.544	0.646	1.09	1.01	1.13	1.1
NCI-H647		1.04	1.21	1.17	1.01	0.187	0.186	0.167	0.159	0.16	0.0445	0.161	0.305	0.188	0.159	1.15	0.935	1.24	1.25
NCI-H650		1.27	0.769	0.43	0.516		0.938	0.846	0.522	0.464		0.332	0.402	0.314	0.294	0.876		0.43	1.16
NCI-H661	0.501	0.594	0.375	0.521	0.52	0.942	0.934	0.876	0.931	0.933	0.591	0.821	1.04	0.921	1.06	0.498	0.445	0.505	0.624
NCI-H838	0.994	1.04	0.95	0.97	1.08	0.264	0.252	0.239	0.239	0.245	0.254	0.287		0.364	0.279	1.06	1.01	1.13	1.35
NCI-H1355		0.858	0.682		0.823		1.09	0.965	0.804	1.08		0.692	0.749	0.651	0.703	1.09	0.984	0.998	1.28
NCI-H1395		1.07	1.05	1.07	0.854		0.813	0.907	0.749	0.806	0.375	0.462	0.396	0.409	0.366	0.898	1.16	1.09	1.17
NCI-H1437	1.03	0.989	1.07	0.974	1.07	0.338	0.304	0.318	0.324	0.321	0.281	0.372	0.256	0.39	0.482	0.779	0.753	0.972	0.959
NCI-H1563	1.16	1.18	1.16	1.2	1.39	0.667	0.836	0.591	0.822	0.744	0.408	0.46	0.459	0.461	0.456	0.939	0.991	1.02	0.691
NCI-H1651	0.962	1.01	0.833	0.971	0.989	0.575	0.555	0.525	0.416	0.613	0.355	0.411	0.373	0.442	0.435	1.04	0.929	0.847	0.963
NCI-H1666	0.841		0.846	1.03	0.931	0.787	0.864	0.877	0.97	0.865	0.84	0.775	0.798	0.809	0.822	0.828	0.583	0.711	0.438
NCI-H1734		0.924	0.602	0.701	0.893		0.417	0.397	0.421	0.411		0.478	0.454	0.313	0.387	0.541	0.961	1.05	0.917
NCI-H1755	0.917	0.984	0.887	0.975	0.99	0.36	0.427	0.395	0.47	0.424	0.419	0.38	0.405	0.403	0.337	1.08	1.02	1.09	1.09
NCI-H1792		0.599	0.485	0.528	0.394		1.03	0.622	0.723	0.525		0.839	0.892	0.857	0.905	0.965	0.811	0.97	1.08
NCI-H1793	0.832	1.53	0.702	0.781	0.914		1.08		0.911	1.17		0.503			0.399	0.752	0.59	0.817	0.987
NCI-H1915	1.11	1.14	1.08	1.02	0.964	0.507	0.451	0.457	0.272	0.372	0.316	0.318	0.386	0.296	0.345	1.05	1	1	1.07

Cell Line	relative viability (Dabrafenib + Linsitinib; first compound 0.003 µM)	relative viability (Dabrafenib + Linsitinib; first compound 0.009487 µM)	relative viability (Dabrafenib + Linsitinib; first compound 0.03 µM)	relative viability (Dabrafenib + Linsitinib; first compound 0.09487 µM)	relative viability (Dabrafenib + Linsitinib; first compound 0.3 µM)	relative viability (Dabrafenib + Pemetrexed; first compound 0.003 µM)	relative viability (Dabrafenib + Pemetrexed; first compound 0.009487 µM)	relative viability (Dabrafenib + Pemetrexed; first compound 0.03 µM)	relative viability (Dabrafenib + Pemetrexed; first compound 0.09487 µM)	relative viability (Dabrafenib + Pemetrexed; first compound 0.3 µM)	relative viability (Dabrafenib + Dasatinib; first compound 0.003 µM)	relative viability (Dabrafenib + Dasatinib; first compound 0.009487 µM)	relative viability (Dabrafenib + Dasatinib; first compound 0.03 µM)	relative viability (Dabrafenib + Dasatinib; first compound 0.09487 µM)	relative viability (Dabrafenib + Dasatinib; first compound 0.3 µM)	relative viability (VX-702 + Lapatinib; first compound 0.02 µM)	relative viability (VX-702 + Lapatinib; first compound 0.2 µM)	relative viability (VX-702 + Lapatinib; first compound 0.6325 µM)	relative viability (VX-702 + Lapatinib; first compound 2 µM)
NCI-H1944	1.17	1.28	1.06	1.18	1.14	0.569	0.58	0.587	0.444	0.668	0.197	0.24	0.236	0.244	0.178	0.903	0.774	0.878	0.789
NCI-H1975	1.06	1.04	0.889	0.995	0.905	0.304	0.282	0.272	0.28	0.292	0.372	0.345	0.363	0.344	0.392	0.925	1.03	0.961	1.22
NCI-H1993	0.633	0.772	0.658	0.835	0.721	0.575	0.571	0.619	0.55	0.669	0.627	0.665	0.607	0.845	0.856	0.811	0.827	0.827	0.743
NCI-H2009	1.16	1.09	1.08	1.01	0.861	0.997	0.956	0.818	0.761	0.701	0.228	0.308	0.268	0.209	0.224	1.14	0.931	1.01	1.08
NCI-H2023	0.639	0.667	0.595	0.715	0.792	0.229	0.247	0.207	0.211	0.255	0.559	0.589	0.586	0.516	0.673	0.729	0.504	0.712	0.977
NCI-H2085	0.827	0.857	0.944	0.908	0.845	0.707	1.05	0.861	0.864	1.08	0.246	0.28	0.216	0.288	0.188	0.81	0.739	0.767	0.808
NCI-H2087	0.979	0.862	0.779	0.805	0.638		0.64	0.662	0.695	0.643		0.894	0.798	0.519	0.657	1.28	1.1	1.1	1.16
NCI-H2126	0.698	0.725	0.681	0.757	0.715	0.624	0.808	0.623	0.706	0.756	0.582	0.642	0.681	0.713	0.69	0.752	0.763	0.74	0.824
NCI-H2228	0.579	0.839	0.524	0.782	0.81	0.342	0.415	0.357	0.332	0.321		0.482	0.635	0.506	0.506	0.851	1.04	1.04	1.33
NCI-H2347	0.675	0.965	1.08	1.03	0.942		0.445	0.362	0.399	0.405		0.309	0.308	0.448	0.38	0.996	0.813	0.891	0.902
NCI-H2405		0.967		0.735	0.721		0.967	0.687	0.878	0.839		0.221		0.181	0.172	1.23	0.761	1.02	1.46
NCI-H3122	0.943	1.02	1.01	1.01	1.04	0.19	0.195	0.214	0.203	0.215	0.773	0.767	0.908	0.793	0.75	1.07	0.977	1.04	1.03
PC-3 [JPC-3]	0.943	0.977	0.955	0.964	0.978		1.24	1.12	1.05	1.14	0.882	1.06	0.925	0.881	1.03	0.468	0.461	0.442	0.414
PC-14	0.956	1.03	0.957	0.975	0.984		0.135	0.133	0.125	0.154	0.276	0.297	0.271	0.251	0.281	0.363	0.245	0.311	0.29
RERF-LC-KJ	0.876	0.989	0.871	0.83	1.01	0.491	0.525	0.477	0.501	0.536	0.73	0.919	0.92	0.799	0.989	0.891	0.801	0.888	0.933
SK-LU-1	0.799	1	0.813	0.968	0.833		1.06	0.898	0.865	0.715		0.185	0.193	0.173	0.188	1.09	0.885	0.887	1.29
SK-MES-1	1.07	1.04	1.06	1.04	1.12		0.952	0.915	0.86	0.742	0.323	0.412	0.417	0.317	0.289	0.449	0.407	0.458	0.43
